Laboratory results published in US20130065883A1 (Centro Nacional de Investigaceiones Oncologicas (CNIO), priority 2010, published 2013).
Read-outs that look alike come from different tables or passages of the source.

Columns and labels:
[1] = Metabolic stability assay; type: in vitro ADME; settings: percentage metabolic stability in human liver microsomes
Method: The metabolic stability assay was performed in Wuxi. 1 μM, 15 min. The kinase selectivity testing was performed in ProQinase GmbH, Germany.

PIM-2 = target: T1, PIM-2 (Homo sapiens, UniProt Q9P1W9); assay: PIM-2 biochemical assay (ADP Hunter); settings: semi-quantitative class; read-out: PIM2 IC50;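 also: recombinant N-terminally His-tagged human enzyme, kinase activity quantified by detection of ADP formed as the direct reaction product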
T1 construct: histidine tag (N); made in house

PIM-3 = target: T2, PIM-3 (Homo sapiens, UniProt Q86V86); assay: PIM-3 biochemical assay (ADP Hunter); settings: read-out: PIM3 IC50;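 also: kinase activity read out as the quantity of ADP generated by the enzyme reaction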
T2 construct: purchased Millipore 14-738

tumor cell lines = assay: Combination assay (MTT in vitro cell proliferation, combination index); type: cell-based; settings: for EC50: read-out: Chemo EC50
PIM-1 = target: T3, PIM-1 (Homo sapiens, UniProt P11309); assay: PIM-1 biochemical assay (ADP Hunter); settings: read-out: PIM1 IC50;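 also: recombinant human PIM-1 carrying a C-terminal His tag, kinase activity quantified via ADP formed as the direct enzymatic product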
T3 construct: histidine tag (C); made in house

FLT3 = target: T4, FLT3 (Homo sapiens, UniProt P36888); assay: FLT3 biochemical assay (ADP Hunter);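 also: FLT3 enzymatic activity quantified through the ADP produced by the kinase reaction, detected with an ADP Hunter readout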
T4 sequence (P36888 27-993): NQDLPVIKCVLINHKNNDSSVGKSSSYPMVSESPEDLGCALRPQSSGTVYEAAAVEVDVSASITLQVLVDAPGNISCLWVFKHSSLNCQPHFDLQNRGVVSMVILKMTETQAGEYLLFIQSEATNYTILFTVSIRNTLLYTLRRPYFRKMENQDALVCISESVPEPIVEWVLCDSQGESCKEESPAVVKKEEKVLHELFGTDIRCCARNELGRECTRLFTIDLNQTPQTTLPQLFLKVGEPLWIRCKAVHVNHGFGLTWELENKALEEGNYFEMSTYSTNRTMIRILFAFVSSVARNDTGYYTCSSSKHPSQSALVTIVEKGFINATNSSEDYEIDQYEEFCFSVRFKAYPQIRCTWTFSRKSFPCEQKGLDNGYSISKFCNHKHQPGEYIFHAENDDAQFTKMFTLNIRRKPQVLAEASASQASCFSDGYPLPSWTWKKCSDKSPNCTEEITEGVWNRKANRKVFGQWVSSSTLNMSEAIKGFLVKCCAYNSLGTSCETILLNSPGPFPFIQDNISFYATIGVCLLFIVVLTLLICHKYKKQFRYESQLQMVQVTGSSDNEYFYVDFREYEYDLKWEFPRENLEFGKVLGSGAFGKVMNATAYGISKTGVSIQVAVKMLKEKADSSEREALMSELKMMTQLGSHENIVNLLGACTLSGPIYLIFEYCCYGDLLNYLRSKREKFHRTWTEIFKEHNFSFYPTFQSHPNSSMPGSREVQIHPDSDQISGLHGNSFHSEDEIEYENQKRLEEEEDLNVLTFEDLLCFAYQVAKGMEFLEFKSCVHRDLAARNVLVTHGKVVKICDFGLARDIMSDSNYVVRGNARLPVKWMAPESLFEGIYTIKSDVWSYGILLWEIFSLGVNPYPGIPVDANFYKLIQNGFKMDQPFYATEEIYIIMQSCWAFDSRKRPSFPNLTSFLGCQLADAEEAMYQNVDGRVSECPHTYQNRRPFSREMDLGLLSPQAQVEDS

[2] = actual IC50 value in parentheses
[3] = Jeko-1, combined with lapatinib
[4] = SKMel19, combined with GDC-0879
[5] = Homo sapiens, SK-MEL19, SKMel19, melanoma, chemotherapeutic alone
[6] = Homo sapiens, JeKo-1, Jeko-1, Mantle cell lymphoma, chemotherapeutic alone
[7] = Homo sapiens, MV4-11, MV4:11, leukemia (AML), chemotherapeutic alone
[8] = Homo sapiens, MIA PaCa-2, MiaPaca-2, pancreas, chemotherapeutic alone

T3 sequence (P11309 whole entry): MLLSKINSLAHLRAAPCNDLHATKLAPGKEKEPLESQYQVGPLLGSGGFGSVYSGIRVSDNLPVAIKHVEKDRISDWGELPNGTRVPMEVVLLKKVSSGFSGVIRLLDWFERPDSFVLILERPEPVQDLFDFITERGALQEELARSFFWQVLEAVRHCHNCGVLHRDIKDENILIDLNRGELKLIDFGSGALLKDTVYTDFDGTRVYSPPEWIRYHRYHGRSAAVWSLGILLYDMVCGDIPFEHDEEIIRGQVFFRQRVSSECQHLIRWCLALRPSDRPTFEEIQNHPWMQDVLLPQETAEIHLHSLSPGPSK
T1 sequence (Q9P1W9 whole entry): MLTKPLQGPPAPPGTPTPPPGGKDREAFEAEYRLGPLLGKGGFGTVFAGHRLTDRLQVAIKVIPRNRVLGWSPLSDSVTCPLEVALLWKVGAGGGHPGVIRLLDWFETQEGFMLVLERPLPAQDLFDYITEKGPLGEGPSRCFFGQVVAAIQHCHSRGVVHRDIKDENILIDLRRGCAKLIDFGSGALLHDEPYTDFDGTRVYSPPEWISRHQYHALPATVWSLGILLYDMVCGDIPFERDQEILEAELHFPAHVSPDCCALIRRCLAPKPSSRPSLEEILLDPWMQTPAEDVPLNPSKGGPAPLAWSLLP

| Structure (SMILES) | IC50 (PIM-2) | IC50 (PIM-3; semi-quantitative class) | IC50 (PIM-1; [2]) | IC50 (PIM-1; semi-quantitative class) | IC50 (FLT3; semi-quantitative class) | also measured |
| --- | --- | --- | --- | --- | --- | --- |
| FC(F)(F)Oc1cccc(-n2nnc3ccc(NCC4CCNCC4)nc32)c1 [2-21] | – | – | – | – | – | Stability in HLM [1]: 97.95% |
| FC(F)(F)Oc1cccc(-n2nnc3ccc(NCC4CCN(Cc5ccncc5)CC4)nc32)c1 [2-25] | > 1000 nM | < 100 nM | 34 nM | < 100 nM | > 1000 nM | IC50 (PIM-3; [2]): 22 nM; Combination Index (CI) (tumor cell lines; [3]): 0.387; Synergy (tumor cell lines; [3]): ++ (0.3 < CI < 0.7 (++)); Combination Index (CI) (tumor cell lines; MV4:11, combined with GDC-0941): 0.311; Synergy (tumor cell lines; MV4:11, combined with GDC-0941): ++ (0.3 < CI < 0.7 (++)); Combination Index (CI) (tumor cell lines; [4]): 0.87; Synergy (tumor cell lines; [4]): + (0.7 < CI < 1.2 (+)) |
| Oc1ccc(-n2nnc3ccc(NCC4CCNCC4)nc32)cc1 [2-32] | > 1000 nM | < 100 nM | 11 nM | < 100 nM | 100 to 1000 nM | IC50 (PIM-3; [2]): 15 nM |
| FC(F)(F)Oc1cccc(-n2nnc3ccc(N4CC5(CCNCC5)C4)nc32)c1 [2-49] | 100 to 1000 nM | 100 to 1000 nM | – | – | > 1000 nM | Synergy (tumor cell lines; NCIH23, combined with lapatinib): + (0.7 < CI < 1.2 (+)) |
| CN1CCC(CNc2nc3c(cc2Cl)nnn3-c2cccc(OC(F)(F)F)c2)CC1 [2-55, [6-chloro-3-(3-trifluoromethoxy-phenyl)-3H-[1,2,3]triazolo[4,5-b]pyridin-5-yl]-(1-methyl-piperidin-4-ylmethyl)-amine] | > 1000 nM | > 1000 nM | 90 nM | < 100 nM | 100 to 1000 nM | Combination Index (CI) (tumor cell lines; [3]): 0.15; Synergy (tumor cell lines; [3]): +++ (0.1 < CI < 0.3 (+++)); Combination Index (CI) (tumor cell lines; MV4:11, combined with GDC-0941): 0.35; Synergy (tumor cell lines; MV4:11, combined with GDC-0941): ++ (0.3 < CI < 0.7 (++)) |
| CS(=O)(=O)N1CCC(Nc2ccc3nnn(-c4cccc(OC(F)(F)F)c4)c3n2)CC1 [2-56] | 100 to 1000 nM | > 1000 nM | 79 nM | < 100 nM | > 1000 nM | – |
| O[C@H]1CC[C@@H](CNc2ccc3nnn(-c4cccc(OC(F)(F)F)c4)c3n2)CC1 [2-57] | > 1000 nM | 100 to 1000 nM | – | < 100 nM | > 1000 nM | – |
| FC(F)(F)Oc1cccc(-n2nnc3ccc(N4CCOC5(CCNCC5)C4)nc32)c1 [2-58] | > 1000 nM | > 1000 nM | 85 nM | < 100 nM | > 1000 nM | – |
| FC(F)(F)Oc1cccc(-n2nnc3ccc(N4CCCC5(CCNCC5)C4)nc32)c1 [2-59] | > 1000 nM | 100 to 1000 nM | – | < 100 nM | > 1000 nM | – |
| FC(F)(F)Oc1cccc(-n2nnc3ccc(N4CCC5(CC4)CNCCO5)nc32)c1 [2-61] | > 1000 nM | > 1000 nM | 74 nM | < 100 nM | > 1000 nM | – |
| FC(F)(F)c1cccc(-n2nnc3ccc(NCC4CCNCC4)nc32)c1 [2-63] | > 1000 nM | 100 to 1000 nM | – | – | > 1000 nM | – |
| O[C@H]1CC[C@@H](Nc2ccc3nnn(-c4cccc(OC(F)(F)F)c4)c3n2)CC1 [2-68] | – | – | – | – | – | Synergy (tumor cell lines; [3]): ++ (0.3 < CI < 0.7 (++)); Synergy (tumor cell lines; MV4:11, combined with GDC-0941): ++ (0.3 < CI < 0.7 (++)) |
| FC(F)(F)Oc1cccc(-n2nnc3ccc(N4CCNCC4)nc32)c1 [2-69] | > 1000 nM | 100 to 1000 nM | – | – | > 1000 nM | – |
| OC1CCN(c2ccc3nnn(-c4cccc(OC(F)(F)F)c4)c3n2)CC1 [2-70] | 100 to 1000 nM | 100 to 1000 nM | – | 100 to 1000 nM | > 1000 nM | – |
| CC(C)N1CCC(CNc2ccc3nnn(-c4cccc(OC(F)(F)F)c4)c3n2)CC1 [2-73] | > 1000 nM | 100 to 1000 nM | – | – | > 1000 nM | – |
| CCN1CCC(CNc2ccc3nnn(-c4cccc(OC(F)(F)F)c4)c3n2)CC1 [2-76] | > 1000 nM | 100 to 1000 nM | – | – | > 1000 nM | – |
| FC(F)(F)Oc1cccc(-n2nnc3cc(Cl)c(N4CCCC5(CCCN5)CC4)nc32)c1 (stereo not shown) [2-78] | > 1000 nM | < 100 nM | – | < 100 nM | < 100 nM | IC50 (PIM-3; [2]): 56 nM; IC50 (FLT3; [2]): 20 nM |
| FC(F)(F)Oc1cccc(-n2nnc3cc(Cl)c(NC4CC5(CCNCC5)C4)nc32)c1 [2-79] | > 1000 nM | < 100 nM | 33 nM | < 100 nM | 100 to 1000 nM | IC50 (PIM-3; [2]): 40 nM |
| CS(=O)(=O)NC1CCN(c2ccc3nnn(-c4cccc(OC(F)(F)F)c4)c3n2)CC1 [2-80] | > 1000 nM | 100 to 1000 nM | – | 100 to 1000 nM | > 1000 nM | – |
| FC(F)(F)c1cccc(-n2nnc3ccc(N4CCCC5(CCCN5)CC4)nc32)c1 (stereo not shown) [2-81] | > 1000 nM | 100 to 1000 nM | 71 nM | < 100 nM | 100 to 1000 nM | – |
| FC(F)(F)Oc1cccc(-n2nnc3cc(Br)c(NCC4CCNCC4)nc32)c1 [2-89] | 100 to 1000 nM | < 100 nM | 11 nM | < 100 nM | < 100 nM | IC50 (PIM-3; [2]): 8 nM; IC50 (FLT3; [2]): 58 nM |
| COc1cc(NCC2CC3(CCNCC3)C2)nc2c1nnn2-c1cccc(N(C)C)c1 [2-94] | > 1000 nM | < 100 nM | 9 nM | < 100 nM | > 1000 nM | IC50 (PIM-3; [2]): 56 nM |
| COc1cc(NC2CC3(CCNCC3)C2)nc2c1nnn2-c1cccc(N(C)C)c1 [2-96] | > 1000 nM | < 100 nM | 32 nM | < 100 nM | > 1000 nM | IC50 (PIM-3; [2]): 68 nM |
| OCCn1cc(-c2ccc3c(c2)CC/C3=N\O)c(-c2ccncc2)n1 [GDC-0879, reference compound] | – | – | – | – | – | EC50 (tumor cell lines; [5]): 300 nM |
| CS(=O)(=O)N1CCN(Cc2cc3nc(-c4cccc5[nH]ncc45)nc(N4CCOCC4)c3s2)CC1 [GDC-0941, reference compound] | – | – | – | – | – | EC50 (tumor cell lines; Homo sapiens, A549, A549, lung adenocarcinoma, chemotherapeutic alone): 6000 nM; EC50 (tumor cell lines; [6]): 1000 nM; EC50 (tumor cell lines; [7]): 500 nM; EC50 (tumor cell lines; Homo sapiens, NCI-H1975, NCIH1975, non small cell lung carcinoma, chemotherapeutic alone): 20000 nM; EC50 (tumor cell lines; [5]): 500 nM; EC50 (tumor cell lines; PC3, prostate cancer, chemotherapeutic alone): 10000 nM |
| Nc1ccn([C@@H]2O[C@H](CO)[C@@H](O)C2(F)F)c(=O)n1 [Gemcitabine, 4-amino-1-[3,3-difluoro-4-hydroxy-5-(hydroxymethyl)tetrahydrofuran-2-yl]-1H-pyrimidin-2-one, reference compound] | – | – | – | – | – | EC50 (tumor cell lines; [8]): 50 nM |
| O=C(NOC[C@H](O)CO)c1ccc(F)c(F)c1Nc1ccc(I)cc1F [PD-0325901, (R)—N-(2,3-dihydroxypropoxy)-3,4-difluoro-2-(2-fluoro-4-iodophenylamino)benz-amide, reference compound] | – | – | – | – | – | EC50 (tumor cell lines): 1250 nM |
| CS(=O)(=O)CCNCc1ccc(-c2ccc3ncnc(Nc4ccc(OCc5cccc(F)c5)c(Cl)c4)c3c2)o1 [lapatinib, N-(3-chloro-4-(3-fluorobenzyloxy)phenyl)-6-(5-((2-(methylsulfonyl)ethylamino)-methyl)furan-2-yl)quinazolin-4-amine, reference compound] | – | – | – | – | – | EC50 (tumor cell lines; HTC116, colon carcinoma, chemotherapeutic alone): 10000 nM; EC50 (tumor cell lines; [6]): 5000 nM; EC50 (tumor cell lines; [8]): 20000 nM; EC50 (tumor cell lines; [7]): 5000 nM; EC50 (tumor cell lines; Homo sapiens, NCI-H23, NCIH23, non small cell lung carcinoma, chemotherapeutic alone): 10000 nM |
